Experimental findings from ChEMBL document CHEMBL1201862, “PubChem BioAssay data set” (2004) are described below.

Format in all cases: functional
The target of assay [1] is BDNF/NT-3 growth factors receptor (Homo sapiens, UniProt Q16620).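 Also: NTRK2 measured as one member of a broad kinome-wide kinase profiling panel.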
For assay [2], the target named is High affinity nerve growth factor receptor (Homo sapiens, UniProt P04629).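 Also: NTRK1 tested as one member of a kinome-wide profiling panel.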
The target of assay [3] is Cyclin-dependent kinase 8 (Homo sapiens, UniProt P49336). Put plainly: Navigating the Kinome. Panel member name: CDK8.
Assay [4] concerns the target Mitogen-activated protein kinase 13 (Homo sapiens, UniProt O15264).
The target of assay [5] is Serine/threonine-protein kinase PLK4 (Homo sapiens, UniProt O00444).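 Also: PLK4 measured as one member of a kinome-wide kinase profiling panel.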
For assay [6], the target named is RAC-alpha serine/threonine-protein kinase (Homo sapiens, UniProt P31749).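 Also: AKT1 affinity measured as one member of a kinome-wide kinase profiling panel.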
The target in assay [7] is Receptor-type tyrosine-protein kinase FLT3 (Homo sapiens, UniProt P36888).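 Also: FLT3 was tested as one member of a kinome-wide kinase panel.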
Assay [8] deals with Hepatocyte growth factor receptor (Homo sapiens, UniProt P08581).
Assay [9] concerns the target Serine/threonine-protein kinase PLK3 (Homo sapiens, UniProt Q9H4B4).
Assay [10] addresses Serine/threonine-protein kinase pim-3 (Homo sapiens, UniProt Q86V86).
The target of the next assay is Insulin receptor (Homo sapiens, UniProt P06213).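 Also: insulin receptor kinase tested as one member of a kinome-wide kinase panel.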
Assay [11] addresses RAC-gamma serine/threonine-protein kinase (Homo sapiens, UniProt Q9Y243).
The target in assay [12] is Fibroblast growth factor receptor 1 (Homo sapiens, UniProt P11362).
In assay [13] the target is Serine/threonine-protein kinase Chk1 (Homo sapiens, UniProt O14757).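 Also: measured as one member of a kinome-wide kinase profiling panel.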
Assay [14] deals with Serine/threonine-protein kinase pim-1 (Homo sapiens, UniProt P11309).
For assay [15], the target named is Vascular endothelial growth factor receptor 2 (Homo sapiens, UniProt P35968).
Assay [16] has as its target Serine/threonine-protein kinase PLK1 (Homo sapiens, UniProt P53350).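 Also: PLK1 measured as one member of a kinome-wide profiling panel.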
In assay [17] the target is ALK tyrosine kinase receptor (Homo sapiens, UniProt Q9UM73).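 Also: ALK tested as one member of a kinase panel screen.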
For assay [18], the target named is Cyclin-dependent kinase 19 (Homo sapiens, UniProt Q9BWU1). Put plainly: Navigating the Kinome. Panel member name: CDC2L6.
For assay [19], the target named is T1, High affinity choline transporter 1 (Homo sapiens, UniProt Q9GZV3).
T1 sequence (Q9GZV3 whole entry): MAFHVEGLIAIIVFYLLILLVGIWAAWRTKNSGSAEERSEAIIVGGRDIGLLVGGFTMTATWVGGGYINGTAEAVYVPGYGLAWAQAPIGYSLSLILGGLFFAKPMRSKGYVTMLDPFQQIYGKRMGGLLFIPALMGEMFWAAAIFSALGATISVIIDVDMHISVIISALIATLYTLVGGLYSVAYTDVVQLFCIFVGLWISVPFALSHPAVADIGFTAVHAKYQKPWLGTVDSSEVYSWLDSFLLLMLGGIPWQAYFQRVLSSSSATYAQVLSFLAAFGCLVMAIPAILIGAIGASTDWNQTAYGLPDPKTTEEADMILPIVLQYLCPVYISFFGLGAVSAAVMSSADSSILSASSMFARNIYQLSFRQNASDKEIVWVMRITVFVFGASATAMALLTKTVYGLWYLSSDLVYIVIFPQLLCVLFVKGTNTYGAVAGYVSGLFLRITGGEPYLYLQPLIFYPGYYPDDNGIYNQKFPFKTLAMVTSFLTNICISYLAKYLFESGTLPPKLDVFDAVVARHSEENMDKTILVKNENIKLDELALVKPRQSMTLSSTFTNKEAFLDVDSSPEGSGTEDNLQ
In words: CHT inhibitors, dose response, cell-based, 5-point CRC, membrane potential dye (AID 504840).

In assay [20] the target is T1, High affinity choline transporter 1. Put plainly: CHT inhibitors, dose response, cell-based, 10-point CRC, membrane potential dye (AID 588401).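 Also: membrane potential dye fluorescence of choline-evoked depolarization via CHT.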
The target in assay [21] is Leucine-rich repeat serine/threonine-protein kinase 2 (Homo sapiens, UniProt Q5S007).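 Also: value from a broad kinome-wide panel profiling study in which LRRK2 was one of the kinases tested.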
Assay [22] addresses Vascular endothelial growth factor receptor 1 (Homo sapiens, UniProt P17948).
Assay [23] concerns the target Dual specificity protein kinase CLK4 (Homo sapiens, UniProt Q9HAZ1).
A short description of assay [24]: Counterscreen for antagonists of the orexin 1 receptor (OX1R; HCRTR1): Fluorescence-based cell-based high throughput dose response assay to identify antagonists of the parental CHO cell line. [Related pubchem assays (depositor defined):AID434989, AID435008, AID463079, AID485270, AID492963, AID492964, AID492965, AID493232, AID504699, AID504701].
In the next assay the test system is CHO-K1. In words: Counterscreen for antagonists of the orexin 1 receptor (OX1R; HCRTR1): Homogeneous time resolved fluorescence (HTRF)-based cell-based dose response assay to identify antagonists of the parental CHO-K1 cell line. [Related pubchem assays (depositor defined):AID434989, AID435008, AID463079, AID485270, AID492963, AID492964, AID492965, AID493232, AID504699, AID504701]. Conditions: Cricetulus griseus.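 Also: potency for inhibition of ATP-stimulated IP1 production as antagonists.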

The target in assay [25] is T2, Orexin receptor type 2 (Homo sapiens, UniProt O43614). In words: Counterscreen assay for antagonists of the orexin 1 receptor (OX1R; HCRTR1): Homogeneous Time Resolved Fluorescence (HTRF)-based cell-based dose response assay for antagonists of the orexin 2 receptor (OX2R; HCRTR2), run by assay provider. For orientation: Counterscreens check selectivity or assay interference.

The target of assay [26] is T3, Orexin/Hypocretin receptor type 1 (Homo sapiens, UniProt O43613).
T3 sequence (O43613 whole entry): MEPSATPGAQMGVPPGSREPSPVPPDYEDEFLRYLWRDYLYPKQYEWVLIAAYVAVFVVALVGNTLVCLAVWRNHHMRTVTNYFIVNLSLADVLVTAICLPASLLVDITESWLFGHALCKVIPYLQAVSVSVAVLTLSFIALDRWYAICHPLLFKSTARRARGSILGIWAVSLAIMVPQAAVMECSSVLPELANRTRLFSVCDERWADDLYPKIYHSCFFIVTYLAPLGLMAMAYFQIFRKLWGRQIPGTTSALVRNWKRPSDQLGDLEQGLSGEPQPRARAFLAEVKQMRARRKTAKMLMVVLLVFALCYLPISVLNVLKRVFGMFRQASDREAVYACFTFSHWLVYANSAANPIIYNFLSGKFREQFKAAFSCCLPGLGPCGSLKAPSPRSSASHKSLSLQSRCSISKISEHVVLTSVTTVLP
In words: Homogeneous Time Resolved Fluorescence (HTRF)-based cell-based high throughput dose response assay for antagonists of the orexin 1 receptor (OX1R; HCRTR1). [Related pubchem assays (depositor defined):AID434989, AID435008, AID463079, AID485270, AID492963, AID492964, AID492965, AID493232, AID504717, AID504718].

Assay [27] has as its target T2, Orexin receptor type 2. In words: Counterscreen assay for antagonists of the orexin 1 receptor (OX1R; HCRTR1): Fluorescence-based cell-based dose response assay for antagonists of the orexin 2 receptor (OX2R; HCRTR2), run by assay provider.
Assay [28] concerns the target T3, Orexin/Hypocretin receptor type 1. Put plainly: Fluorescence-based cell-based high throughput dose response assay for antagonists of the orexin 1 receptor (OX1R; HCRTR1). [Related pubchem assays (depositor defined):AID434989, AID435008, AID463079, AID485270, AID492963, AID492964, AID492965, AID493232, AID504717, AID504718].

As a reminder, the Ki is the dissociation constant of the complex between target and ligand, obtained from inhibition or displacement. What is called IC50 is the midpoint of a concentration-inhibition curve.

Active and inactive are the calls of the source.

Chain of Fibroblast growth factor receptor 1 (P11362 whole entry): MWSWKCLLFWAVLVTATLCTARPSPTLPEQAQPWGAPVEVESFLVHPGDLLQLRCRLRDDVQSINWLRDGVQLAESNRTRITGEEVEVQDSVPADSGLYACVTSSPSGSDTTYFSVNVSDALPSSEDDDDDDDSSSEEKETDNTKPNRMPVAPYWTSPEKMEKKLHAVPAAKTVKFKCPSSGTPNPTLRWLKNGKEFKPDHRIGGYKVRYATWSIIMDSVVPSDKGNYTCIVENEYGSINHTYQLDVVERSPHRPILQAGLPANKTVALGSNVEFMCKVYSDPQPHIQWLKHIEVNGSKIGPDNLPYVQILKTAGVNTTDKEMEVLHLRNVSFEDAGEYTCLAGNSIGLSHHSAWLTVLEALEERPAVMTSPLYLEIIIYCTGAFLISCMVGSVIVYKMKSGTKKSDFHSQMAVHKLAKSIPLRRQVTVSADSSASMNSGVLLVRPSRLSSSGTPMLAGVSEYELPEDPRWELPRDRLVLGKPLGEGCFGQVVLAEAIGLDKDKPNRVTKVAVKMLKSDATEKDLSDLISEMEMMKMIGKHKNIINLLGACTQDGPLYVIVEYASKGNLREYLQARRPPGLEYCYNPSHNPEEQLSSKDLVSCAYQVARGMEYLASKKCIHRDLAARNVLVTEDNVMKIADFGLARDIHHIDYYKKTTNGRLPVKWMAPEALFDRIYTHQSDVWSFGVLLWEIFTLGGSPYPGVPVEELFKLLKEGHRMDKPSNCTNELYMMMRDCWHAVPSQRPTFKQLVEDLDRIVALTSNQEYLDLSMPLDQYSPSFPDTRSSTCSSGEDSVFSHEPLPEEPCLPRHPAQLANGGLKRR
T2 sequence (O43614 whole entry): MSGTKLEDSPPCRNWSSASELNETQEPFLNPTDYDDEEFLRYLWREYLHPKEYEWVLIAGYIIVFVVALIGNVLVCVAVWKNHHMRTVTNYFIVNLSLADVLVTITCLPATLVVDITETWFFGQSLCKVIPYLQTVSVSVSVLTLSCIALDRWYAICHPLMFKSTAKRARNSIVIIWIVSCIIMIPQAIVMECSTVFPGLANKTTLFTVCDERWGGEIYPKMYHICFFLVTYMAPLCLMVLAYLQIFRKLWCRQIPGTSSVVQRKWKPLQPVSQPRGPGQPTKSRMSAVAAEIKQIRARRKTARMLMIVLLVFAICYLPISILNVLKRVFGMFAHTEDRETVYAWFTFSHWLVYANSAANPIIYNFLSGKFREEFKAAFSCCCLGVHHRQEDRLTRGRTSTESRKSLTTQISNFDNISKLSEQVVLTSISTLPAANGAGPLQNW
Chain of Receptor-type tyrosine-protein kinase FLT3 (P36888 whole entry): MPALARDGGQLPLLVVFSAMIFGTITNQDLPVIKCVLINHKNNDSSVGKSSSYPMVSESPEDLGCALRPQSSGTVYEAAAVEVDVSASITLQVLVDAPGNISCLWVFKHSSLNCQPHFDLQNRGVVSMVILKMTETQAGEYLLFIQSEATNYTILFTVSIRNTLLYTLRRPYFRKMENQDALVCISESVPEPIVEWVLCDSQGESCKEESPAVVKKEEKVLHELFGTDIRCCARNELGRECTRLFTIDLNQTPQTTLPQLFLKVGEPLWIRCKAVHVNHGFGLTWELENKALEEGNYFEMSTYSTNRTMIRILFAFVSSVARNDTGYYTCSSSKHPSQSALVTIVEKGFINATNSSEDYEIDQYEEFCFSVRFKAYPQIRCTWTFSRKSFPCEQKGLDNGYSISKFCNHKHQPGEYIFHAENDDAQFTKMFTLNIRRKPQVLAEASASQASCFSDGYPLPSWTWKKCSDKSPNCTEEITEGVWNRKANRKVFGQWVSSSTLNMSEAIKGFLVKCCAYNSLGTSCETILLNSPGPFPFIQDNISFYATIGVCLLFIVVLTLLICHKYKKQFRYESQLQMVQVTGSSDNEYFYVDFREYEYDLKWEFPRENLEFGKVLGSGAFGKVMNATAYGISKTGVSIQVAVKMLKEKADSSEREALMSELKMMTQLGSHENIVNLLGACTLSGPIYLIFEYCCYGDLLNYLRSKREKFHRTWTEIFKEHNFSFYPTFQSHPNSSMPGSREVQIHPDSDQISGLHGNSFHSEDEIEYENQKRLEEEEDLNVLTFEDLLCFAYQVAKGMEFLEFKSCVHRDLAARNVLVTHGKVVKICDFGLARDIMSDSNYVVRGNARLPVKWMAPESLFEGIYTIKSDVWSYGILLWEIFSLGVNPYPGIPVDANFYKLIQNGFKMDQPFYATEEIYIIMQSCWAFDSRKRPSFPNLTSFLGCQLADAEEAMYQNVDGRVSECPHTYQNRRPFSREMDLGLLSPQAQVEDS
Chain of Vascular endothelial growth factor receptor 1 (P17948 whole entry): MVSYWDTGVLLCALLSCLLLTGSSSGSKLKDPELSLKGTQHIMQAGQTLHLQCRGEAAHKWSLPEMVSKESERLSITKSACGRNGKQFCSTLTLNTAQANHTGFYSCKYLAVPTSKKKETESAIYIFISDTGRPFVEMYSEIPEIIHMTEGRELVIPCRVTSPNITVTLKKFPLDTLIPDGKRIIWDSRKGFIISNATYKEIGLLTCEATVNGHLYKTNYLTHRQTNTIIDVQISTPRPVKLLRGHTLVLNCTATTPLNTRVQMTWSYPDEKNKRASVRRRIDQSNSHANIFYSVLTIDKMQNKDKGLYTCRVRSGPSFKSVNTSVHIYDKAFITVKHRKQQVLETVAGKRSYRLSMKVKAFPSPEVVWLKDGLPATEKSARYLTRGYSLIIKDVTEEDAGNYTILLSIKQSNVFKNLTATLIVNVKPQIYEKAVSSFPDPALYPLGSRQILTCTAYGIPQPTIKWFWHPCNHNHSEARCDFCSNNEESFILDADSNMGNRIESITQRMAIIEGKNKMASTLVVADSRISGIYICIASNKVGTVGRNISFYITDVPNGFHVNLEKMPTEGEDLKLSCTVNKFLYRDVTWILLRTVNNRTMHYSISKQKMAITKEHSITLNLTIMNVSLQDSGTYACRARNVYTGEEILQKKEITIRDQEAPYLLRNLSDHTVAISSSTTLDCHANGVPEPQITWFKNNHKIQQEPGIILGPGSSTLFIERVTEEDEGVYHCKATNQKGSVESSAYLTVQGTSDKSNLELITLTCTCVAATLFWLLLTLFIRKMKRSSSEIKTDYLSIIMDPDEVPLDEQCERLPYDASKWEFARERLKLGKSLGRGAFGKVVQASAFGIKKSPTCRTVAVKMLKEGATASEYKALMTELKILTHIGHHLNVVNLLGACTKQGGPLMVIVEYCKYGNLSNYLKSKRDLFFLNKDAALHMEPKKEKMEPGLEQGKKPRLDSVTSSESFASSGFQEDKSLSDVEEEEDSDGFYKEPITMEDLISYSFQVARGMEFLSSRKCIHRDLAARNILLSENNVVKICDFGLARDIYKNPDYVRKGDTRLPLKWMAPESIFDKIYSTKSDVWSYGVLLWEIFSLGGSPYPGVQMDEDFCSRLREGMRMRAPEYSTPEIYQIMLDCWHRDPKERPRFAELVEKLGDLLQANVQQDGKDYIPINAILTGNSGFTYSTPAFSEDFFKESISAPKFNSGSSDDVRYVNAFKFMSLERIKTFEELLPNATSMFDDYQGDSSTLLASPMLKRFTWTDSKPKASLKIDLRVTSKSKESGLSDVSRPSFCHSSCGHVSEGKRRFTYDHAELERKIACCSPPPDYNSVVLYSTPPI
Chain of Serine/threonine-protein kinase PLK1 (P53350 whole entry): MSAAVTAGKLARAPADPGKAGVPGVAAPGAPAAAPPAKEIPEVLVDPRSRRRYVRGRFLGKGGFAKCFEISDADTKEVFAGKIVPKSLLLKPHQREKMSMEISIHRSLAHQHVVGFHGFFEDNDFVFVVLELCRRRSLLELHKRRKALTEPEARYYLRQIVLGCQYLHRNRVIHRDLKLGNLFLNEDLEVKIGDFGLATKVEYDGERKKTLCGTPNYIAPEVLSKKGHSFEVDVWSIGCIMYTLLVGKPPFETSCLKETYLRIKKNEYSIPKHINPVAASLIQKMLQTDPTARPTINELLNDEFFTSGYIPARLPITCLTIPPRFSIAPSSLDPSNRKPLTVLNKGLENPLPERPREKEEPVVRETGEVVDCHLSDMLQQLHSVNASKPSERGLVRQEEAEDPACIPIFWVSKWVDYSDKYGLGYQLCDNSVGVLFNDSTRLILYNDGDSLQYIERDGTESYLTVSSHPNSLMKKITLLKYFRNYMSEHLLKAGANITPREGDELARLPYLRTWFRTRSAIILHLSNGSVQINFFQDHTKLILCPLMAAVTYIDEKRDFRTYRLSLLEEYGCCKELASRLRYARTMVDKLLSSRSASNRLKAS
Chain of Serine/threonine-protein kinase pim-1 (P11309 whole entry): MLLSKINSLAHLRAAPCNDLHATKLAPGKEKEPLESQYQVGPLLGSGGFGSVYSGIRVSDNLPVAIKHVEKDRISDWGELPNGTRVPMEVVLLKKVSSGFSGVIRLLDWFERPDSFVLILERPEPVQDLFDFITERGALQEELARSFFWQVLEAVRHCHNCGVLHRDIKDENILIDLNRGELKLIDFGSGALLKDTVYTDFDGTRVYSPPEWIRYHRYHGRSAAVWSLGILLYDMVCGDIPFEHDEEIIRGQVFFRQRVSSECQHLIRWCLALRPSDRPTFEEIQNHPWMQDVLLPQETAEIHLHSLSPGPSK

Turning to `COc1ccc(COc2ccc(Cc3cnc(N)nc3N)cc2OC)cc1` [GW632580X], the inhibition constant (Ki) is 0.158 µM (active) in assay [1] and 1.58 µM (active) in [2].
As to `O=C(O)C1CN(Cc2ccc(CCc3cccc(C(F)(F)F)c3)cc2)C1`, the inhibition constant Ki in [3] is 3.16 µM (active).
In the case of `CS(=O)(=O)Nc1cc2c(cc1Cl)NC(=O)Nc1cnc(C#N)c(n1)OCCCCCO2`, the Ki in assay [4] is > 7.94 µM (inactive).
Turning to `Nc1n[nH]c2c(Cl)cccc12`, the Ki in assay [5] is > 39.8 µM (inactive); in assay [6] it was > 79.4 µM (inactive); in [7] it was 2.51 µM (active); in assay [8] it was > 31.6 µM (inactive); in assay [9] it was 10 µM (active); in assay [10], > 79.4 µM (inactive). In addition, the Ki on Insulin receptor is > 50.1 µM (inactive); in [11], > 100 µM (inactive); in assay [12], > 50.1 µM (inactive); in assay [13], 25.1 µM (active); in [14], > 100 µM (inactive); in [15], > 79.4 µM (inactive). Besides, the Ki in [16] is > 79.4 µM (inactive).
As for `Cn1cc(Nc2ncc(Br)c(Nc3ccccc3Cl)n2)cn1`, the inhibition constant Ki in assay [17] was 0.0631 µM (active); in assay [18], 1 µM (active).
With `Cc1ccc(C)[n+](CC(=O)c2ccc(-c3ccccc3)cc2)c1`, the IC50 is 10.3 µM (active) in [19] and 10.8 µM (active) in [20].
Turning to `COc1ccc(CNC(=O)c2sc3nc(C)cc(C)c3c2N)cc1`, the inhibition constant Ki in [21] was 1 µM (active); in assay [22], 3.16 µM (active).
As to `CC(C)(C)c1ccc2nc(-c3n[nH]c4ccc(Br)cc34)[nH]c2c1`, the Ki in assay [7] is 2.51 µM (active); in [12], 3.16 µM (active); in assay [23], 1.26 µM (active).
As for `Sc1nnc(-c2cc(-c3ccccc3)[nH]n2)n1/N=C/c1cccs1`, the IC50 in assay [24] was > 49.7 µM (inactive); with CHO-K1, > 66.2 µM (inactive); on Orexin receptor type 2 [25] it was > 50 µM (inactive); in assay [26], 8.08 µM (active); on Orexin receptor type 2 [27] it was > 88.8 µM (inactive); in assay [28], > 49.7 µM (inactive).
